Source: US12344600B2, “c-Myc mRNA translation modulators and uses thereof in the treatment of cancer” (Anima Biotech Inc., priority 2022, dated 2025)

tested on: c-Myc; experiment: c-Myc immunofluorescence assay; assay type: cell-based, human; details: A549 cells, 24 hours, anti-c-Myc immunofluorescence
Summary of the method: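 A549 NSCLC cells grown 48 h, then treated 24 h with increasing compound concentrations; fixed in 4% paraformaldehyde, stained with anti-c-Myc antibody plus fluorescent secondary and DAPI. Per-cell c-Myc fluorescence quantified by high-content imaging at 20×; dose-response fitted by logistic regression to give EC50.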

SMILES | Myc Efficacy (−LogEC50)
COc1ccc(-c2noc(N3CCC(C(=O)NC(C)C4CCCCO4)CC3)n2)cc1 (stereo not drawn) [Compound 313, 1-(3-(4-methoxyphenyl)-1,2,4-oxadiazol-5-yl)-N-(1-(tetrahydro-2H-pyran-2-yl)ethyl)piperidine-4-carboxamide] | − (− ≤3)
COc1ccc(-c2noc(N3CCC(C(=O)NCCN(C)C4CC4)CC3)n2)cc1 [Compound 314, N-(2-(cyclopropyl(methyl)amino)ethyl)-1-(3-(4-methoxyphenyl)-1,2,4-oxadiazol-5-yl)piperidine-4-carboxamide] | + (+ >3 and <5)
COc1ccc(-c2noc(N3CCC(C(=O)N[C@@H](CCO)C(C)C)CC3)n2)cc1 [Compound 315, (S)-N-(1-hydroxy-4-methylpentan-3-yl)-1-(3-(4-methoxyphenyl)-1,2,4-oxadiazol-5-yl)piperidine-4-carboxamide] | + (+ >3 and <5)
COc1ccc(-c2noc(N3CCC(C(=O)N[C@H]4CCN(Cc5ccccc5)C4)CC3)n2)cc1 [Compound 316, (S)-N-(1-benzylpyrrolidin-3-yl)-1-(3-(4-methoxyphenyl)-1,2,4-oxadiazol-5-yl)piperidine-4-carboxamide] | + (+ >3 and <5)
COc1ccc(-c2noc(N3CCC(C(=O)NCCc4c[nH]c5cc(C)ccc45)CC3)n2)cc1 [Compound 317, 1-(3-(4-methoxyphenyl)-1,2,4-oxadiazol-5-yl)-N-(2-(6-methyl-1H-indol-3-yl)ethyl)piperidine-4-carboxamide] | ++ (++ ≥5 and <6)
COc1ccc(-c2noc(N3CCC(C(=O)NCc4cnc(C(F)(F)F)s4)CC3)n2)cc1 [Compound 318, 1-(3-(4-methoxyphenyl)-1,2,4-oxadiazol-5-yl)-N-((2-(trifluoromethyl)thiazol-5-yl)methyl)piperidine-4-carboxamide] | + (+ >3 and <5)
COc1ccc(-c2noc(N3CCC(C(=O)Nc4cc(Cl)c(Cl)cn4)CC3)n2)cc1 [Compound 319, N-(4,5-dichloropyridin-2-yl)-1-(3-(4-methoxyphenyl)-1,2,4-oxadiazol-5-yl)piperidine-4-carboxamide] | + (+ >3 and <5)
COc1ccc(-c2noc(N3CCC(C(=O)NCC4CCN(Cc5ccco5)C4)CC3)n2)cc1 (stereo not drawn) [Compound 320, N-((1-(furan-2-ylmethyl)pyrrolidin-3-yl)methyl)-1-(3-(4-methoxyphenyl)-1,2,4-oxadiazol-5-yl)piperidine-4-carboxamide] | + (+ >3 and <5)
COc1ccc(-c2noc(N3CCC(C(=O)NCC4CCN(Cc5ccccc5O)C4)CC3)n2)cc1 (stereo not drawn) [Compound 321, N-((1-(2-hydroxybenzyl)pyrrolidin-3-yl)methyl)-1-(3-(4-methoxyphenyl)-1,2,4-oxadiazol-5-yl)piperidine-4-carboxamide] | ++ (++ ≥5 and <6)
COc1ccc(-c2noc(N3CCC(C(=O)NCC4CCN(Cc5ccncc5)C4)CC3)n2)cc1 (stereo not drawn) [Compound 322, 1-(3-(4-methoxyphenyl)-1,2,4-oxadiazol-5-yl)-N-((1-(pyridin-4-ylmethyl)pyrrolidin-3-yl)methyl)piperidine-4-carboxamide] | ++ (++ ≥5 and <6)
COc1ccc(-c2noc(N3CCC(C(=O)NCC4CCN(CC5CCCC5)C4)CC3)n2)cc1 (stereo not drawn) [Compound 323, N-((1-(cyclopentylmethyl)pyrrolidin-3-yl)methyl)-1-(3-(4-methoxyphenyl)-1,2,4-oxadiazol-5-yl)piperidine-4-carboxamide] | ++ (++ ≥5 and <6)
C#Cc1cccc(CN2CCC(CNC(=O)C3CCN(c4nc(-c5ccc(OC)cc5)no4)CC3)C2)c1 (stereo not drawn) [Compound 324, N-((1-(3-ethynylbenzyl)pyrrolidin-3-yl)methyl)-1-(3-(4-methoxyphenyl)-1,2,4-oxadiazol-5-yl)piperidine-4-carboxamide] | ++ (++ ≥5 and <6)
COc1ccc(-c2noc(N3CCC(C(=O)NCC4CCN(Cc5cc[nH]c5)C4)CC3)n2)cc1 (stereo not drawn) [Compound 325, N-((1-((1H-pyrrol-3-yl)methyl)pyrrolidin-3-yl)methyl)-1-(3-(4-methoxyphenyl)-1,2,4-oxadiazol-5-yl)piperidine-4-carboxamide] | + (+ >3 and <5)
COc1ccc(-c2noc(N3CCC(C(=O)NCC4CCN(Cc5cc(C)ccn5)C4)CC3)n2)cc1 (stereo not drawn) [Compound 326, 1-(3-(4-methoxyphenyl)-1,2,4-oxadiazol-5-yl)-N-((1-((4-methylpyridin-2-yl)methyl)pyrrolidin-3-yl)methyl)piperidine-4-carboxamide] | ++ (++ ≥5 and <6)
COc1ccc(-c2noc(N3CCC(C(=O)NCC4CCN(CC(C)(C)C)C4)CC3)n2)cc1 (stereo not drawn) [Compound 327, 1-(3-(4-methoxyphenyl)-1,2,4-oxadiazol-5-yl)-N-((1-neopentylpyrrolidin-3-yl)methyl)piperidine-4-carboxamide] | + (+ >3 and <5)
COc1ccc(-c2noc(N3CCC(C(=O)NCC4CCN(Cc5ccccc5C)C4)CC3)n2)cc1 (stereo not drawn) [Compound 328, 1-(3-(4-methoxyphenyl)-1,2,4-oxadiazol-5-yl)-N-((1-(2-methylbenzyl)pyrrolidin-3-yl)methyl)piperidine-4-carboxamide] | ++ (++ ≥5 and <6)
COc1ccc(-c2noc(N3CCC(C(=O)NCC4CCN(Cc5cnccc5C)C4)CC3)n2)cc1 (stereo not drawn) [Compound 329, 1-(3-(4-methoxyphenyl)-1,2,4-oxadiazol-5-yl)-N-((1-((4-methylpyridin-3-yl)methyl)pyrrolidin-3-yl)methyl)piperidine-4-carboxamide] | + (+ >3 and <5)
COc1ccc(-c2noc(N3CCC(C(=O)NCC4CCN(Cc5ccoc5)C4)CC3)n2)cc1 (stereo not drawn) [Compound 330, N-((1-(furan-3-ylmethyl)pyrrolidin-3-yl)methyl)-1-(3-(4-methoxyphenyl)-1,2,4-oxadiazol-5-yl)piperidine-4-carboxamide] | + (+ >3 and <5)
COc1ccc(-c2noc(N3CCC(C(=O)NCC4CCN(Cc5ccc(F)cc5)C4)CC3)n2)cc1 (stereo not drawn) [Compound 331, N-((1-(4-fluorobenzyl)pyrrolidin-3-yl)methyl)-1-(3-(4-methoxyphenyl)-1,2,4-oxadiazol-5-yl)piperidine-4-carboxamide] | ++ (++ ≥5 and <6)
COc1ccc(-c2noc(N3CCC(C(=O)NCC4CCN(Cc5cccc(F)c5)C4)CC3)n2)cc1 (stereo not drawn) [Compound 332, N-((1-(3-fluorobenzyl)pyrrolidin-3-yl)methyl)-1-(3-(4-methoxyphenyl)-1,2,4-oxadiazol-5-yl)piperidine-4-carboxamide] | ++ (++ ≥5 and <6)
COc1ccc(-c2noc(N3CCC(C(=O)NCC4CCN(Cc5cncc(F)c5)C4)CC3)n2)cc1 (stereo not drawn) [Compound 333, N-((1-((5-fluoropyridin-3-yl)methyl)pyrrolidin-3-yl)methyl)-1-(3-(4-methoxyphenyl)-1,2,4-oxadiazol-5-yl)piperidine-4-carboxamide] | + (+ >3 and <5)
COc1ccc(-c2noc(N3CCC(C(=O)NCC4CCN(Cc5ncccc5F)C4)CC3)n2)cc1 (stereo not drawn) [Compound 334, N-((1-((3-fluoropyridin-2-yl)methyl)pyrrolidin-3-yl)methyl)-1-(3-(4-methoxyphenyl)-1,2,4-oxadiazol-5-yl)piperidine-4-carboxamide] | + (+ >3 and <5)
COc1ccc(-c2noc(N3CCC(C(=O)NCC4CCN(Cc5ccc(F)cn5)C4)CC3)n2)cc1 (stereo not drawn) [Compound 335, N-((1-((5-fluoropyridin-2-yl)methyl)pyrrolidin-3-yl)methyl)-1-(3-(4-methoxyphenyl)-1,2,4-oxadiazol-5-yl)piperidine-4-carboxamide] | ++ (++ ≥5 and <6)
COc1ccc(-c2noc(N3CCC(C(=O)NCC4CCN(CC5CCC5)C4)CC3)n2)cc1 (stereo not drawn) [Compound 336, N-((1-(cyclobutylmethyl)pyrrolidin-3-yl)methyl)-1-(3-(4-methoxyphenyl)-1,2,4-oxadiazol-5-yl)piperidine-4-carboxamide] | ++ (++ ≥5 and <6)
COc1ccc(-c2noc(N3CCC(C(=O)NCC4CCN(CC5CC5(C)C)C4)CC3)n2)cc1 (stereo not drawn) [Compound 337, N-((1-((2,2-dimethylcyclopropyl)methyl)pyrrolidin-3-yl)methyl)-1-(3-(4-methoxyphenyl)-1,2,4-oxadiazol-5-yl)piperidine-4-carboxamide] | ++ (++ ≥5 and <6)
COc1ccc(-c2noc(N3CCC(C(=O)NCC4CCN(CC5CCCCC5)C4)CC3)n2)cc1 (stereo not drawn) [Compound 338, N-((1-(cyclohexylmethyl)pyrrolidin-3-yl)methyl)-1-(3-(4-methoxyphenyl)-1,2,4-oxadiazol-5-yl)piperidine-4-carboxamide] | ++ (++ ≥5 and <6)
COc1ccc(-c2noc(N3CCC(C(=O)NCC4CCN(Cc5ccc(O)cc5)C4)CC3)n2)cc1 (stereo not drawn) [Compound 339, N-((1-(4-hydroxybenzyl)pyrrolidin-3-yl)methyl)-1-(3-(4-methoxyphenyl)-1,2,4-oxadiazol-5-yl)piperidine-4-carboxamide] | ++ (++ ≥5 and <6)
COc1ccc(-c2noc(N3CCC(C(=O)NCC4CCN(Cc5ccccn5)C4)CC3)n2)cc1 (stereo not drawn) [Compound 340, 1-(3-(4-methoxyphenyl)-1,2,4-oxadiazol-5-yl)-N-((1-(pyridin-2-ylmethyl)pyrrolidin-3-yl)methyl)piperidine-4-carboxamide] | ++ (++ ≥5 and <6)
COc1ccc(-c2noc(N3CCC(C(=O)NCC4CCN(Cc5cncs5)C4)CC3)n2)cc1 (stereo not drawn) [Compound 341, 1-(3-(4-methoxyphenyl)-1,2,4-oxadiazol-5-yl)-N-((1-(thiazol-5-ylmethyl)pyrrolidin-3-yl)methyl)piperidine-4-carboxamide] | + (+ >3 and <5)
COc1ccc(-c2noc(N3CCC(C(=O)NCC4CCN(Cc5ccccc5)C4)CC3)n2)cc1 (stereo not drawn) [Compound 342, N-((1-benzylpyrrolidin-3-yl)methyl)-1-(3-(4-methoxyphenyl)-1,2,4-oxadiazol-5-yl)piperidine-4-carboxamide] | ++ (++ ≥5 and <6)
